In PMC3997483, “Aminostyrylbenzofuran Directly Reduces Oligomeric Amyloid-β and Reverses Cognitive Deficits in Alzheimer Transgenic Mice” (PLoS ONE, 2014):

System: SD rats
Experiment: 2-week repeated oral dose toxicity study
Format: in vivo
Settings: for A / G ratio / ALP / ALT / AST / Albumin / B / C ratio / BUN / CHO / CK / CRE / Glucose / K^+ / LDH / Na^+ / T-Bil / TG (triglyceride) / TP: serum
Experimental: KMS88009 was orally administered once a day by gavage for 14 consecutive days at dose level of 0 (vehicle), 100, 300 and 1,000 mg/kg (n = 5 per group). […] Organs were collected at necropsy; adrenal, kidney, thymus, spleen, heart, lung, liver, testis and brain. The absolute organ weights were measured and the organs-to-body weight ratios were calculated. Blood samples for hematological evaluation were collected from vein of animals under ether anesthesia. Food was withheld overnight before necropsy and blood collections. EDTA was used as an anticoagulant for hematology samples. White blood cell (WBC), red blood cell (RBC), hemoglobin concentration (HGB), hematocrit (HCT), mean corpuscular volume (MCV), mean corpuscular hemoglobin (MCH), mean corpuscular hemoglobin concentration (MCHC), cell hemoglobin concentration mean (CHCM), cell hemoglobin (CH), red cell distribution width (RDW), hemoglobin distribution width (HDW), platelet count (PLT), mean platelet volume (MPV) and reticulocyte were measured by a hematological autoanalyzer (ADVIA 120, Bayer, USA). To get the serum for biochemical analyses, blood samples in a separation tube were centrifuged at 4,000 rpm for 10 min on the day of necropsy. The serum was kept frozen at -70°C until analysis. Sodium citrate was used as an anticoagulant for biochemical analyses. Serum biochemical parameters including aspartate aminotransferase (AST), alanine aminotransferase (ALT), alkaline phosphatase (ALP), total bilirubin (T-Bil), albumin, total protein (TP), albumin/globulin ratio (A/G ratio), glucose, total cholesterol (CHO), triglyceride (TG), lactate dehydrogenase (LDH), creatine kinase (CK), blood urea nitrogen (BUN), creatinine (CRE), blood urea nitrogen/creatinine ratio (B/C ratio), Na^+, K^+ and Cl^- were evaluated by an autoanalyzer (Shimadzu CL-7200, Shimadzu Co., Japan).
All data for single and 2-week repeated oral dose toxicity studies were expressed as the mean ± SD Difference between control and treated groups were evaluated with one-way analysis of variance (ANOVA) followed by Dunnett's test. Value P<0.05 was taken as being statistically significant. Statistical analyses were performed using GraphPad Prism software (USA).

[1] = rats PO 1,000 mg/kg/day, 2 weeks

With `COc1ccc2cc(C=Cc3ccc(N(C)C)cc3)oc2c1` [KMS88009, 6-methoxy-2-(4-dimethylaminostyryl) benzofuran] the Body weight (rats PO 300 mg/kg/day, day 11) was 317.6 ± 17.0 g, the Body weight (rats PO 300 mg/kg/day, day 14) was 338.5 ± 16.9 g and the “Abnormal gross findings of necropsy (changed animals / total)” value [1] was 0 / 5. For the same compound, the Basophils [1] was 0.01 ± 0.01 x10^3/μL, the “Body Weight (at necropsy)” value [1] was 319.932 ± 12.441 g and the Brain weight [1] was 1.922 ± 0.009 g. For the same compound, the CH [1] was 20.0 ± 0.5 pg, the CHCM [1] was 34.1 ± 0.4 g/dL and the Eosinophils [1] was 0.05 ± 0.04 x10^3/μL. The HDW [1] was 2.29 ± 0.09 g/dL, the Heart weight [1] was 1.074 ± 0.065 g and the Hematocrit [1] was 42.1 ± 2.2%. The Hemoglobin [1] was 14.0 ± 0.8 g/dL, the LUC [1] was 0.06 ± 0.04 x10^3/μL and the Left adrenal weight [1] was 0.025 ± 0.004 g. It also gave a Left kidney weight [1] of 1.342 ± 0.067 g, a Left testis weight [1] of 1.366 ± 0.053 g and a Liver weight [1] of 11.173 ± 0.202 g. The Lung weight [1] was 1.279 ± 0.094 g, the Lympocytes [1] was 6.50 ± 3.11 x10^3/μL and the MCH [1] was 19.6 ± 0.5 pg. The MCHC [1] was 33.3 ± 0.6 g/dL, the MCV [1] was 59.0 ± 1.0 fL and the MPV [1] was 7.58 ± 0.3 fL. For the same compound, the Monocytes [1] was 0.13 ± 0.05 x10^3/μL, the “Mortality (dead animals / total number of animals)” value [1] was 0 / 5 and the Neutrophils [1] was 1.08 ± 0.46 x10^3/μL. The Platelet [1] was 1325 ± 141 x10^3/μL, the RBC [1] was 7.14 ± 0.27 x10^6/μL and the RDW [1] was 12.1 ± 0.2%. The “Rate body weight / brain” value [1] was 0.601 ± 0.024%, the “Rate body weight / heart” value [1] was 0.336 ± 0.014% and the “Rate body weight / left adrenal” value [1] was 0.008 ± 0.001%. The “Rate body weight / left kidney” value [1] was 0.420 ± 0.025%, the “Rate body weight / left testis” value [1] was 0.427 ± 0.025% and the “Rate body weight / liver” value [1] was 3.495 ± 0.093%. For the same compound, the “Rate body weight / lung” value [1] was 0.400 ± 0.030%, the “Rate body weight / right adrenal” value [1] was 0.008 ± 0.001% and the “Rate body weight / right kidney” value [1] was 0.418 ± 0.030%. For the same compound, the “Rate body weight / right testis” value [1] was 0.427 ± 0.021%, the “Rate body weight / spleen” value [1] was 0.234 ± 0.031% and the “Rate body weight / thymus” value [1] was 0.194 ± 0.017%. For the same compound, the Retic [1] was 307.4 ± 32.8 x10^3/μL, the Right adrenal weight [1] was 0.026 ± 0.003 g and the Right kidney weight [1] was 1.334 ± 0.067 g. For the same compound, the Right testis weight [1] was 1.365 ± 0.036 g, the Spleen weight [1] was 0.749 ± 0.112 g and the Symptomatic signs [1] was “-”. The Thymus weight [1] was 0.621 ± 0.073 g, the WBC [1] was 7.83 ± 3.64 x10^3/μL and the Body weight (rats PO 1,000 mg/kg/day, day 1) was 228.3 ± 6.5 g. For the same compound, the Body weight (rats PO 1,000 mg/kg/day, day 4) was 251.1 ± 8.6 g, the Body weight (rats PO 1,000 mg/kg/day, day 8) was 296.4 ± 14.2 g and the Body weight (rats PO 1,000 mg/kg/day, day 11) was 323.0 ± 15.8 g. The Body weight (rats PO 1,000 mg/kg/day, day 14) was 346.6 ± 16.1 g, the “A / G ratio” value (rats PO 100 mg/kg/day, 2 weeks) was 0.82 ± 0.08 and the ALP (rats PO 100 mg/kg/day, 2 weeks) was 723.4 ± 40.3 IU/L. For the same compound, the ALT (rats PO 100 mg/kg/day, 2 weeks) was 37.3 ± 6.2 IU/L, the AST (rats PO 100 mg/kg/day, 2 weeks) was 152.3 ± 47.1 IU/L and the Albumin (rats PO 100 mg/kg/day, 2 weeks) was 2.52 ± 0.18 g/dL. The “B / C ratio” value (rats PO 100 mg/kg/day, 2 weeks) was 28.3 ± 6.1, the BUN (rats PO 100 mg/kg/day, 2 weeks) was 12.2 ± 1.5 mg/dL and the CHO (rats PO 100 mg/kg/day, 2 weeks) was 79.4 ± 15.2 mg/dL. For the same compound, the CK (rats PO 100 mg/kg/day, 2 weeks) was 258.4 ± 54.3 IU/L, the CRE (rats PO 100 mg/kg/day, 2 weeks) was 0.44 ± 0.05 mg/dL and the Glucose (rats PO 100 mg/kg/day, 2 weeks) was 159.2 ± 23.5 mg/dL. For the same compound, the “K^+” value (rats PO 100 mg/kg/day, 2 weeks) was 4.58 ± 0.43 mmol/L, the LDH (rats PO 100 mg/kg/day, 2 weeks) was 168.0 ± 36.4 IU/L and the “Na^+” value (rats PO 100 mg/kg/day, 2 weeks) was 140.5 ± 1.2 mmol/L. The T-Bil (rats PO 100 mg/kg/day, 2 weeks) was 0.01 ± 0.01 mg/dL, the “TG (triglyceride)” value (rats PO 100 mg/kg/day, 2 weeks) was 47.0 ± 29.5 mg/dL and the TP (rats PO 100 mg/kg/day, 2 weeks) was 5.66 ± 0.17 g/dL. The “A / G ratio” value (rats PO 300 mg/kg/day, 2 weeks) was 0.77 ± 0.06, the ALP (rats PO 300 mg/kg/day, 2 weeks) was 755.6 ± 165.7 IU/L and the ALT (rats PO 300 mg/kg/day, 2 weeks) was 32.9 ± 4.7 IU/L. The AST (rats PO 300 mg/kg/day, 2 weeks) was 149.2 ± 24.3 IU/L, the Albumin (rats PO 300 mg/kg/day, 2 weeks) was 2.4 ± 0.00 g/dL and the “B / C ratio” value (rats PO 300 mg/kg/day, 2 weeks) was 29.6 ± 8.1. It also gave a BUN (rats PO 300 mg/kg/day, 2 weeks) of 12.3 ± 2.8 mg/dL, a CHO (rats PO 300 mg/kg/day, 2 weeks) of 81.8 ± 11.6 mg/dL and a CK (rats PO 300 mg/kg/day, 2 weeks) of 222.0 ± 56.7 IU/L. The CRE (rats PO 300 mg/kg/day, 2 weeks) was 0.42 ± 0.04 mg/dL, the Glucose (rats PO 300 mg/kg/day, 2 weeks) was 148.0 ± 23.5 mg/dL and the “K^+” value (rats PO 300 mg/kg/day, 2 weeks) was 4.73 ± 0.26 mmol/L. The LDH (rats PO 300 mg/kg/day, 2 weeks) was 127.2 ± 47.0 IU/L, the “Na^+” value (rats PO 300 mg/kg/day, 2 weeks) was 139.8 ± 1.8 mmol/L and the T-Bil (rats PO 300 mg/kg/day, 2 weeks) was 0.02 ± 0.01 mg/dL. The “TG (triglyceride)” value (rats PO 300 mg/kg/day, 2 weeks) was 29.4 ± 7.2 mg/dL, the TP (rats PO 300 mg/kg/day, 2 weeks) was 5.56 ± 0.23 g/dL and the “A / G ratio” value [1] was 0.76 ± 0.04. For the same compound, the ALP [1] was 736.0 ± 109.1 IU/L, the ALT [1] was 32.7 ± 7.8 IU/L and the AST [1] was 162.0 ± 19.1 IU/L. The Albumin [1] was 2.44 ± 0.05 g/dL, the “B / C ratio” value [1] was 29.7 ± 2.0 and the BUN [1] was 11.9 ± 0.8 mg/dL. It also gave a CHO [1] of 80.4 ± 18.2 mg/dL, a CK [1] of 260.2 ± 62.0 IU/L and a CRE [1] of 0.4 ± 0.00 mg/dL. The Glucose [1] was 141.3 ± 15.6 mg/dL, the “K^+” value [1] was 4.87 ± 0.22 mmol/L and the LDH [1] was 126.0 ± 53.9 IU/L. The “Na^+” value [1] was 140.1 ± 1.2 mmol/L, the T-Bil [1] was 0.02 ± 0.01 mg/dL and the “TG (triglyceride)” value [1] was 30.8 ± 7.7 mg/dL. It also gave a TP [1] of 5.62 ± 0.19 g/dL.
